Laboratory results from ChEMBL document CHEMBL5150049, “The discovery of (1R, 3R)-1-(3-chloro-5-fluorophenyl)-3-(hydroxymethyl)-1,2,3,4-tetrahydroisoquinoline-6-carbonitrile, a potent and selective agonist of human transient receptor potential cation channel subfamily m member 5 (TRPM5) and evaluation of as a potential gastrointestinal prokinetic agent” (Bioorg Med Chem, 2022).
Converted amounts (≈) assume the structure as drawn. The source made the active and inactive calls. The rule behind the calls is not given here.

Legend:
[1] = target: T1, Transient receptor potential cation channel subfamily M member 5 (Homo sapiens, UniProt Q9NZQ8); experiment: Agonist activity at human TRPM5 expressed in CHO-K1 cells assessed as increase in relative fluorescence unit measured for 2 mins by FLIPR based membrane potential assay; assay type: cell-based
T1 sequence (Q9NZQ8 whole entry): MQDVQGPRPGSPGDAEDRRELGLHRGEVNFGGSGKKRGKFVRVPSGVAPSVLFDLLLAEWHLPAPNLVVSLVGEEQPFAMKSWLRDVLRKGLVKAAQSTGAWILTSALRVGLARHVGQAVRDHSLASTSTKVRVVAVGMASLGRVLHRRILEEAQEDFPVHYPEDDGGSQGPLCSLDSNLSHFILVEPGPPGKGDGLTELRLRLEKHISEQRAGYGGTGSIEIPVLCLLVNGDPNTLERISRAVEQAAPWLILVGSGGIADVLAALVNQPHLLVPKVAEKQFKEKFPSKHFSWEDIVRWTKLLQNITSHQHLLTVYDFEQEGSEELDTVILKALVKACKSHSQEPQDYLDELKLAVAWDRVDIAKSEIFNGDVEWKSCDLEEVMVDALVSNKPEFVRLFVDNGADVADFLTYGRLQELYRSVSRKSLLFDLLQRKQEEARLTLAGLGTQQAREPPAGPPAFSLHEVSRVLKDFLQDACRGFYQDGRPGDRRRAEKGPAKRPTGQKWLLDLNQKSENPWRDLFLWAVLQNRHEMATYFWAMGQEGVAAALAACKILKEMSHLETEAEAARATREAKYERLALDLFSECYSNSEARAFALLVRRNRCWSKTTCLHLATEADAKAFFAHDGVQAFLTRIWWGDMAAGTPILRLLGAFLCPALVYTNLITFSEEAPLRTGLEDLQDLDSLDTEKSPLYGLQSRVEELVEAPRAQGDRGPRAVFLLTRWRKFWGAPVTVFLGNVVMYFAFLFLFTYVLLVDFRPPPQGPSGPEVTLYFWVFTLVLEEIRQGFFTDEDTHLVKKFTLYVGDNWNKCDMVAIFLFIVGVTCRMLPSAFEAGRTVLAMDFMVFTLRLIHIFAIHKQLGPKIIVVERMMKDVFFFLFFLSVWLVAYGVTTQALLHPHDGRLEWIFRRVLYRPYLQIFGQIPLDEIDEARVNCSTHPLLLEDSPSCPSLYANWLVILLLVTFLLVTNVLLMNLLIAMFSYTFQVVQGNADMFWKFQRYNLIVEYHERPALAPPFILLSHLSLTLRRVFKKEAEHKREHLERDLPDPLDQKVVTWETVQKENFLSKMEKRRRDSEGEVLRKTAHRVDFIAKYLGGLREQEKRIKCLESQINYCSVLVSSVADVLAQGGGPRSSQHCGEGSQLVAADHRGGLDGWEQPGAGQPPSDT

[2] = target: Transient receptor potential cation channel subfamily M member 4 (Homo sapiens, UniProt Q8TD43); experiment: Agonist activity at human TRPM4 expressed in CHO-K1 cells assessed as increase in relative fluorescence unit by measuring membrane potential by FLIPR assay; assay type: cell-based
[3] = target: T2, Transient receptor potential cation channel subfamily M member 5 (Homo sapiens) (UniProt Q9NZQ8); experiment: Agonist activity at human TRPM5 expressed in human Caco-2 cells assessed as increase in acetylcholine release at 50 uM incubated for 18 hrs by mass spectrometric analysis; assay type: cell-based; settings: filed as agonist
T2 sequence (whole entry): T1 sequence (Q9NZQ8 whole entry)

[4] = target: T3, Transient receptor potential cation channel subfamily M member 5 (Mus musculus) (UniProt Q9JJH7); experiment: Binding affinity to mouse colon mucosal epithelium TRPM5 assessed as increase in short circuit current; assay type: tissue-based; settings: Colonic epithelium, filed as agonist
T3 sequence (whole entry): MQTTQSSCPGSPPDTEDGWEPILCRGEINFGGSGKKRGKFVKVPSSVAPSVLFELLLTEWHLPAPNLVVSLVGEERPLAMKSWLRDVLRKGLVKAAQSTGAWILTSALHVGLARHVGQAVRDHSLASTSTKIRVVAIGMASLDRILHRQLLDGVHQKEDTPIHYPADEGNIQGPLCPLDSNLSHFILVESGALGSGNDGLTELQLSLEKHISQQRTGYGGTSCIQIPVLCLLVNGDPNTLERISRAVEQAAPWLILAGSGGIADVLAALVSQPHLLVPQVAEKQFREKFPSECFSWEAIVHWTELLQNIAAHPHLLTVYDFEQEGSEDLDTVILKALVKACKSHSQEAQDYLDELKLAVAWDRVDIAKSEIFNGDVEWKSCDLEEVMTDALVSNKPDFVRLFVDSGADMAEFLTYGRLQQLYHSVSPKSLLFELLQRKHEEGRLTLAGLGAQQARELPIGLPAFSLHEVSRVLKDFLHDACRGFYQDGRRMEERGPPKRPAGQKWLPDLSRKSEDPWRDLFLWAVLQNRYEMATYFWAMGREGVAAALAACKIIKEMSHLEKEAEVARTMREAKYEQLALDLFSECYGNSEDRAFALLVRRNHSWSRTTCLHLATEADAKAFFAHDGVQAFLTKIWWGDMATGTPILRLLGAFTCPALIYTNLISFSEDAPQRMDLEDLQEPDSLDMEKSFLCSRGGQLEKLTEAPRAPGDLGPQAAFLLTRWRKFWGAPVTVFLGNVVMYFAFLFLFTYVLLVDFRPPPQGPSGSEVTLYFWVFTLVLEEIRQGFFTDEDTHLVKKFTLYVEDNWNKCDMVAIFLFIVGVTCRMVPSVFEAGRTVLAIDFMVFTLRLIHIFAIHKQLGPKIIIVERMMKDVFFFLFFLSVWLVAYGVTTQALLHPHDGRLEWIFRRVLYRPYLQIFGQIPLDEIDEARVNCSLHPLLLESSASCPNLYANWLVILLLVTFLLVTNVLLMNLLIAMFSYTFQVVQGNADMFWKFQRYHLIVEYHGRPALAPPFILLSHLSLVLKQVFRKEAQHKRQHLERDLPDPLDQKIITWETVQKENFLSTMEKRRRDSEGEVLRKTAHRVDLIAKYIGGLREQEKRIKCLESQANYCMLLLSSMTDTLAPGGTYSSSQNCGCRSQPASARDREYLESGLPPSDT

[5] = system: Mus musculus; experiment: Induction of gastrointestinal motility in CD-1 mouse assessed as increase in fecal water content at 10 to 100 mg/kg, po measured upto 6 hrs; assay type: functional, organism-based; settings: dose 10-100 mg/kg
[6] = system: Mus musculus; experiment: Induction of gastrointestinal motility in CD-1 mouse assessed as increase in fecal weight at 10 to 100 mg/kg, po measured upto 6 hrs; assay type: functional, organism-based; settings: dose 10-100 mg/kg
[7] = target: T1, Transient receptor potential cation channel subfamily M member 5; experiment: Agonist activity at TRPM5 (unknown origin)
[8] = target: T1, Transient receptor potential cation channel subfamily M member 5; experiment: Agonist activity at human TRPM5 expressed in HEK cells by whole cell electrophysiology method; assay type: cell-based
[9] = Solubility of the compound in JP1 solution; assay type: physicochemical
[10] = Solubility of the compound in JP2 solution; assay type: physicochemical
[11] = Metabolic stability in human liver microsomes assessed as intrinsic clearance; assay type: ADME, Microsome; settings: read-out: CLH
[12] = Metabolic stability in human liver microsomes assessed as half life; assay type: ADME, Microsome; settings: liver microsomes
[13] = Intrinsic clearance in Sprague-Dawley rat; assay type: ADME
[14] = Half-life in Sprague-Dawley rat; assay type: ADME; settings: in vivo
[15] = target: T1, Transient receptor potential cation channel subfamily M member 5; experiment: Agonist activity at human TRPM5 in HEK293T cells by FLIPR based assay; assay type: cell-based

Chain of Transient receptor potential cation channel subfamily M member 4 (Q8TD43 whole entry): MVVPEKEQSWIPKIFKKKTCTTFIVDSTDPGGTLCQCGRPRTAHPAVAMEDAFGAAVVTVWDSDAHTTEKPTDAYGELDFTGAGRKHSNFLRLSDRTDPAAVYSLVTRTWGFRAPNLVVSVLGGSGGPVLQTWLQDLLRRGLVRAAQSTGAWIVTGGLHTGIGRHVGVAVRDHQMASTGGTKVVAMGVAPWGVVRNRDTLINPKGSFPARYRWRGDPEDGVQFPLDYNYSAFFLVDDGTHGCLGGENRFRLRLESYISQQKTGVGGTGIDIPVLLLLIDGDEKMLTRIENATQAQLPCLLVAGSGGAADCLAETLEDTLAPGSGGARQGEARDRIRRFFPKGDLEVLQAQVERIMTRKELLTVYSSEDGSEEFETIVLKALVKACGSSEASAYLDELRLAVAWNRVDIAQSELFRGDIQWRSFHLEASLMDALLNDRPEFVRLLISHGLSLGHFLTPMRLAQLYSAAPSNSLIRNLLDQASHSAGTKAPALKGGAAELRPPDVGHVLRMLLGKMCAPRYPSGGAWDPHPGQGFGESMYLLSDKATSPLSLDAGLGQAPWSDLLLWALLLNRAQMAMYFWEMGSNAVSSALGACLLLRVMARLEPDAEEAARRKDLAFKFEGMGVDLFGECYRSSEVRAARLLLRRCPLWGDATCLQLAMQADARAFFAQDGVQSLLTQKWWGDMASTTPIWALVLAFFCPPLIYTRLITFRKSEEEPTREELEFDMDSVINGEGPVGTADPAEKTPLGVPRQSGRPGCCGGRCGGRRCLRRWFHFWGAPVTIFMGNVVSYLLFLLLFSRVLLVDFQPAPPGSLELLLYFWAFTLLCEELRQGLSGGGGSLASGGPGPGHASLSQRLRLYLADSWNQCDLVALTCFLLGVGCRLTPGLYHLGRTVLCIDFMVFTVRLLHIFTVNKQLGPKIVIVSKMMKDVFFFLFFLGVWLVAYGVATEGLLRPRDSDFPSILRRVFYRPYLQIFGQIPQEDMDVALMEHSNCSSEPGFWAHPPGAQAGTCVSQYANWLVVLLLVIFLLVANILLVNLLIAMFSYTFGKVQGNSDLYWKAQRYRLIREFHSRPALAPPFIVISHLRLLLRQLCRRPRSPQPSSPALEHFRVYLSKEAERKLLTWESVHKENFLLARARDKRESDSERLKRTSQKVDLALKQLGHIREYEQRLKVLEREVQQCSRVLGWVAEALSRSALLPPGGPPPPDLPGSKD

OC[C@@H]1Cc2ccccc2[C@H](c2ccccc2)N1
EC50 [1]: > 31600 nM

OC[C@@H]1Cc2cc(Cl)c(Cl)cc2[C@H](c2ccccc2)N1
EC50 [1]: 50.1 nM

OC[C@@H]1Cc2ccc(Cl)cc2[C@H](c2ccncc2)N1
EC50 [1]: > 31600 nM

OC[C@@H]1Cc2ccc(Cl)cc2[C@H](c2cc(F)cc(Cl)c2)N1
EC50 [1]: 100 nM
EC50 [2]: 1350 nM

OC[C@@H]1Cc2ccc(Cl)cc2[C@H](c2cccnc2)N1
EC50 [1]: 20000 nM

OCc1cc2ccc(Cl)cc2c(-c2ccccc2)n1
EC50 [1]: > 31600 nM

N#Cc1ccc2c(c1)C[C@@H](CO)N[C@H]2c1cc(F)cc(Cl)c1
EC50 [1]: 20000 nM

OC[C@@H]1Cc2ccc(Cl)cc2[C@H](c2cccc(F)c2)N1
EC50 [1]: 316 nM
EC50 [2]: 1700 nM

OC[C@@H]1Cc2cc(Cl)ccc2[C@H](c2ccccc2Cl)N1
EC50 [1]: 1580 nM

N#Cc1ccc2c(c1)C[C@H](CO)N[C@@H]2c1cc(F)cc(Cl)c1
Activity [3]: Active
Activity [4]: Active
Activity [5]: Active
Activity [6]: Active

OC[C@@H]1Cc2cc(Cl)ccc2[C@H](c2ccccc2)N1
EC50 [1]: 501 nM
EC50 [2]: 26300 nM

COC[C@@H]1Cc2ccc(Cl)cc2[C@H](c2ccccc2)N1
EC50 [1]: 15800 nM

OC[C@H]1Cc2ccc(Cl)cc2[C@H](c2ccccc2)N1
EC50 [1]: > 31600 nM

OC[C@@H]1Cc2cccc(Cl)c2[C@H](c2ccccc2)N1
EC50 [1]: > 31600 nM

Cc1ccc([C@@H]2N[C@H](CO)Cc3ccc(Cl)cc32)cc1
EC50 [1]: 6310 nM

OC[C@@H]1Cc2ccc(Cl)cc2[C@H](c2cc(Cl)cc(Cl)c2)N1
EC50 [1]: 200 nM
EC50 [2]: 8910 nM

OC[C@@H]1Cc2ccc(Cl)cc2[C@H](c2ccccn2)N1
EC50 [1]: 7940 nM

OC[C@@H]1Cc2cc(Cl)ccc2[C@H](c2cc(F)cc(Cl)c2)N1
EC50 [1]: 63.1 nM

N#Cc1cc(F)cc([C@@H]2N[C@H](CO)Cc3cc(Cl)ccc32)c1
EC50 [1]: 251 nM

OC[C@@H]1Cc2cc(Cl)c(F)cc2[C@H](c2ccccc2)N1
EC50 [1]: 316 nM

C=CCNC(=S)/N=c1/sc2ccccc2n1C
EC50 [7]: 10000 nM
EC50 [8]: 9400 nM
solubility [9]: 1.7 µM (≈ 0.448 µg/mL)
solubility [10]: 0.9 µM (≈ 0.237 µg/mL)
CLint scaled [11]: 338 mL/min/kg
half-life [12]: 4.1 min
CLint scaled [13]: 540 mL/min/kg
half-life [14]: 2.6 min
EC50 [1]: 631 nM

Cc1ccccc1[C@@H]1N[C@H](CO)Cc2ccc(Cl)cc21
EC50 [1]: > 31600 nM

OC[C@@H]1Cc2ccc(Cl)cc2[C@H](c2cc(F)cc(F)c2)N1
EC50 [1]: 200 nM
EC50 [2]: 589 nM

OC[C@@H]1Cc2cc(Cl)ncc2[C@H](c2cc(F)cc(Cl)c2)N1
EC50 [1]: 2000 nM

OC[C@@H]1Cc2c(Cl)cccc2[C@H](c2ccccc2)N1
EC50 [1]: 1260 nM

Clc1cnc(CNc2cc3sncc3cc2Cl)s1
Activity [3]: Active

OC[C@@H]1Cc2ccc(Cl)cc2[C@@H](c2ccccc2)N1 (racemic)
EC50 [1]: > 31600 nM

Cc1ccc2c(c1)[C@H](c1ccccc1)N[C@H](CO)C2
EC50 [1]: 10000 nM

OC[C@@H]1Cc2cc(Cl)cnc2[C@H](c2cc(F)cc(Cl)c2)N1
EC50 [1]: 3160 nM

Cc1ccc2c(c1)C[C@@H](CO)N[C@H]2c1ccccc1
EC50 [1]: 10000 nM

CN1[C@H](CO)Cc2ccc(Cl)cc2[C@@H]1c1ccccc1
EC50 [1]: > 31600 nM

C=CC(C)(C)c1cc2cc3c(cc2oc1=O)O[C@H](C(C)(C)OC(C)=O)C3
EC50 [15]: 27000 nM

N#Cc1ccc2c(c1)[C@H](c1cc(F)cc(Cl)c1)N[C@H](CO)C2
EC50 [1]: 7940 nM

OC[C@@H]1Cc2ccc(Cl)cc2[C@H](c2cccc(Cl)c2)N1
EC50 [1]: 501 nM
EC50 [2]: 1820 nM

OC[C@@H]1Cc2ccc(Cl)cc2[C@H](c2ccccc2)N1 (racemic)
EC50 [1]: 794 nM
EC50 [2]: 24500 nM

Cc1cc([C@@H]2N[C@H](CO)Cc3ccc(Cl)cc32)ccc1Cl
EC50 [1]: 1000 nM
EC50 [2]: 25700 nM
